Data published in ChEMBL document CHEMBL1133986, “Design and synthesis of new potent human cytomegalovirus (HCMV) inhibitors based on internally hydrogen-bonded 1,6-naphthyridines” (Bioorg Med Chem Lett, 2001).
Values after ≈ are worked out from the molar mass of the structure shown.

How the values were obtained:
[1] = system: Hs68; experiment: Cytotoxicity against the Hs 68 cell line; type: functional; details: Homo sapiens
[2] = system: Hs68; experiment: Inhibitory activity against Human cytomegalovirus (HCMV) in Hs 68 cell line determined by plaque reduction assay; type: functional, cell-based

CC(C)Oc1ccccc1CNC(=O)Nc1ccc2cnccc2n1
CC50 [1]: 18.9 µg/mL (≈ 56.2 µM) | IC50 [2]: 0.01 µg/mL (≈ 0.0297 µM)

COc1ccccc1C/N=C(\S)c1ccc2cnccc2n1
CC50 [1]: 8.1 µg/mL (≈ 26.2 µM) | IC50 [2]: 0.93 µg/mL (≈ 3.01 µM)

CCOc1ccccc1C/N=C(\S)c1ccc2cnccc2n1
CC50 [1]: 4.6 µg/mL (≈ 14.2 µM) | IC50 [2]: 0.1 µg/mL (≈ 0.309 µM)

O=C(Nc1ccccc1)Nc1ccc2cnccc2n1
CC50 [1]: > 100 µg/mL | IC50 [2]: > 25 µg/mL

COc1ccccc1CNC(=O)Nc1ccc2cnccc2n1
CC50 [1]: 13 µg/mL (≈ 42.2 µM) | IC50 [2]: 1 µg/mL (≈ 3.24 µM)

CC(C)Oc1ccccc1NC(=O)Nc1ccc2cnccc2n1
CC50 [1]: 30.2 µg/mL (≈ 93.7 µM) | IC50 [2]: 0.03 µg/mL (≈ 0.0931 µM)

COc1ccccc1NC(=O)Nc1ccc2cnccc2n1
CC50 [1]: 33.9 µg/mL (≈ 115 µM) | IC50 [2]: 1.2 µg/mL (≈ 4.08 µM)

CCOc1ccccc1NC(=O)Nc1ccc2cncc(Br)c2n1
CC50 [1]: 9.3 µg/mL (≈ 24 µM) | IC50 [2]: 0.46 µg/mL (≈ 1.19 µM)

CCOc1ccccc1NC(=O)Nc1nc2ccncc2cc1C#N
CC50 [1]: < 25 µg/mL | IC50 [2]: > 25 µg/mL

O=C(NCc1ccccc1)Nc1ccc2cnccc2n1
CC50 [1]: 0.37 µg/mL (≈ 1.33 µM) | IC50 [2]: 0.29 µg/mL (≈ 1.04 µM)

CCOc1ccccc1NC(=O)Nc1ccc2cnccc2n1
CC50 [1]: 1.7 µg/mL (≈ 5.51 µM) | IC50 [2]: 0.14 µg/mL (≈ 0.454 µM)

CC(C)Oc1ccccc1C/N=C(\S)c1ccc2cnccc2n1
CC50 [1]: 11.1 µg/mL (≈ 32.9 µM) | IC50 [2]: 0.16 µg/mL (≈ 0.474 µM)

CCOc1ccccc1NC(=O)Nc1nc2ccncc2cc1C
CC50 [1]: > 100 µg/mL | IC50 [2]: > 25 µg/mL
